This is an account of results in paper PMC5171800, “Genes encoding norcoclaurine synthase occur as tandem fusions in the Papaveraceae” (Scientific Reports, 2016).

Read-outs that look alike come from different tables or passages of the source.

The subject of one series is T1, NDONCS3.
T1 construct: full-length single-domain polypeptide with signal peptide region retained; His-tagged (pET29b), E. coli, TALON purified
The series can be described thus: CD spectroscopy at […] nm, (S)-norcoclaurine formation. The following applies: pH 7.3, 37 °C, 50 mM phosphate. In kind it is biochemical, Nandina domestica.

A further series deals with T2, CCHNCS2.
T2 construct: full-length natural tandem fusion of two NCS domains; His-tagged (pET29b), E. coli, TALON purified (purification section prints CCHNCS1)
The series is described as above. Format: biochemical, Corydalis cheilanthifolia. Conditions: saturating dopamine; pH 7.3, 37 °C, 50 mM phosphate; 4-HPAA kinetics sigmoidal, table gives Hill coefficient for dopamine.

A further series has as its system O=CCc1ccc(O)cc1. The series can be described thus: purified protein. In kind it is biochemical, Thalictrum flavum. Conditions: saturating dopamine, pH 7.3, 37 °C, 50 mM phosphate, 4-HPAA kinetics sigmoidal, table gives Hill coefficient for dopamine.

For `O=CCc1ccc(O)cc1` [4-hydroxyphenylacetaldehyde], the Km amounted to 480 ± 120 µM with NDONCS3 (saturating dopamine, 4-HPAA kinetics sigmoidal, table gives Hill coefficient for dopamine, read-out: Km (μM) (4-HPAA)) and 1830 ± 697 µM in the series with CCHNCS2.

In the case of `NCCc1ccc(O)c(O)c1` [dopamine], in the series on NDONCS3 (saturating 4-HPAA, Hill fit by table (the source assigns sigmoidal kinetics to 4-HPAA), read-out: K’m (μM) (dopamine)), the Km was found to be 347 ± 35 µM.

For TFLNCS2Δ25 (Thalictrum flavum), in the series with O=CCc1ccc(O)cc1, the Km amounted to 494 ± 112 µM and the kcat was 2.4 ± 0.2 s⁻¹.
